# Reference: article PMC6419574 (Bioorganic & Medicinal Chemistry Letters, 2019)
# Columns and labels:
# fascin [1] = target: T1, fascin (Homo sapiens, UniProt Q16658); assay type: biochemical
# fascin [2] = target: T1, fascin; details: for Ligand efficiency: from SPR Kd
# fascin [3] = target: T1, fascin; test: Isothermal titration calorimetry; assay type: binding; details: 150 µM compound in syringe, 15 µM fascin in cell, Fig. 3B
# fascin [4] = target: T1, fascin; test: biochemical; details: SPR Kd
Compound,inhibition of fascin in the bundling assay (in words) (fascin [1]),Ligand efficiency (fascin [2]),further results
"O=c1c2cnn(C3CCS(=O)(=O)C3)c2ncn1Cc1ccc(Cl)c(Cl)c1 (stereo not drawn) [Compound 2, 5-(3,4-dichlorobenzyl)-1-(1,1-dioxidotetrahydrothiophen-3-yl)-1,5-dihydro-4H-pyrazolo[3,4-d]pyrimidin-4-one, reference compound]",inhibit fascin,,improvement of fascin affinity over truncated compound 25 (fascin [2]): 23 fold
"Cn1cc(NC(=O)c2cn(Cc3ccccc3)c(=O)c3ccccc23)cn1 [Compound 3, 2-benzyl-N-(1-methylpyrazol-4-yl)-1-oxo-isoquinoline-4-carboxamide]",inhibit fascin,,
"O=C(Nc1ccncc1)c1cn(Cc2ccc(Cl)c(Cl)c2)c(=O)c2cnn(C3CCNCC3)c12 [Compound 28, 5-(3,4-dichlorobenzyl)-4-oxo-1-(piperidin-4-yl)-N-(pyridin-4-yl)-4,5-dihydro-1H-pyrazolo[4,3-c]pyridine-7-carboxamide]",,0.29,ITC stoichiometry N (fascin [3]): 1.05 ± 0.01; Kd (fascin [4]): 85 ± 0.02 nM
"Cn1cc(NC(=O)c2cn(Cc3ccc(Cl)cc3)c(=O)c3ccccc23)cn1 [Compound 5, 2-(4-chlorobenzyl)-N-(1-methyl-1H-pyrazol-4-yl)-1-oxo-1,2-dihydroisoquinoline-4-carboxamide]",,,increase in binding affinity compared to 3 (fascin [2]; SPR Kd ratio vs compound 3): ≈ 14 fold
"CC(=O)N(C)c1ccc(Cl)cc1Cl [Compound 1, N-(2,4-dichlorophenyl)-N-methylacetamide]","Unlike compound 1, both 2 and 3 inhibit fascin",0.43,
